Assay results taken from US20230278972A1, “SUBSTITUTED HALOALKYL SULFONANILIDE HERBICIDES” (FMC Corporation, priority 2020, published 2023).

Tests used:
Type in all cases: in vivo
[1] = tested on: Foxtail, Giant (giant foxtail, Setaria faberi); experiment: Test A postemergence, Foxtail, Giant; details: Postemergence, 0 to 100 scale (0 no effect, 100 complete control); for Plant response rating, Foxtail, Giant: 125 g ai/ha, visual injury approx. 10 days; for Foxtail, Giant plant response rating: 500 g ai/ha, visual injury vs untreated controls after approx. 10 days
Method in brief: (§1)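 Test chemicals, formulated in a non-phytotoxic solvent mixture with surfactant, were sprayed postemergence on plants 2 to 10 cm tall at the one- to two-leaf stage. Preemergence treatment was a directed soil spray onto freshly seeded pots. Both used a loam soil and sand blend.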

[2] = tested on: blackgrass (Alopecurus myosuroides); experiment: Test A postemergence, blackgrass; details: Postemergence, 0 to 100 scale (0 no effect, 100 complete control); for Plant response rating, Blackgrass: 125 g ai/ha, visual injury approx. 10 days; for Blackgrass plant response rating: 500 g ai/ha, visual injury vs untreated controls after approx. 10 days
Method in brief: as §1

corn (Zea mays) = experiment: Test A postemergence, corn; details: Postemergence, 0 to 100 scale (0 no effect, 100 complete control); for Plant response rating, Corn: 125 g ai/ha, visual injury approx. 10 days; for Corn plant response rating: 500 g ai/ha, visual injury vs untreated controls after approx. 10 days
Method in brief: as §1

[3] = tested on: Ryegrass, Italian (Italian ryegrass, Lolium multiflorum); experiment: Test A postemergence, Ryegrass, Italian; details: Postemergence, 0 to 100 scale (0 no effect, 100 complete control); for Plant response rating, Ryegrass, Italian: 125 g ai/ha, visual injury approx. 10 days; for Ryegrass, Italian plant response rating: 500 g ai/ha, visual injury vs untreated controls after approx. 10 days
Method in brief: as §1

kochia (Bassia scoparia) [4] = experiment: Test A postemergence, kochia; details: Postemergence, 0 to 100 scale (0 no effect, 100 complete control); for Plant response rating, Kochia: 125 g ai/ha, visual injury approx. 10 days; for Kochia plant response rating: 500 g ai/ha, visual injury vs untreated controls after approx. 10 days
Method in brief: as §1

kochia (Bassia scoparia) [5] = experiment: Test A preemergence, kochia; details: Preemergence; for Kochia plant response rating: 125 g ai/ha, visual injury on 0 to 100 scale (0 no effect, 100 complete control), approximately 10 days; for Plant response rating, Kochia: 500 g ai/ha, 0 to 100 scale (0 no effect, 100 complete control)
Method in brief: as §1

[6] = tested on: pigweed (Amaranthus retroflexus); experiment: Test A preemergence, pigweed; details: for Pigweed plant response rating: 125 g ai/ha, visual injury on 0 to 100 scale (0 no effect, 100 complete control), approximately 10 days; for Plant response rating, Pigweed: 500 g ai/ha, 0 to 100 scale (0 no effect, 100 complete control)
Excerpt: Seeds of plant species selected from barnyardgrass (Echinochloa crus-galli), kochia (Bassia scoparia), ragweed (common ragweed, Ambrosia artemisiifolia), Ryegrass, Italian (Italian ryegrass, Lolium multiflorum), Foxtail, Giant (giant foxtail, Setaria faberi), and pigweed (Amaranthus retroflexus) were planted into a blend of loam soil and sand and treated preemergence with a directed soil spray using test chemicals formulated in a non-phytotoxic solvent mixture which included a surfactant. At the same time, plants selected from these weed species and also wheat (Triticum aestivum), corn (Zea mays), blackgrass (Alopecurus myosuroides), and galium (catchweed bedstraw, Galium aparine) were planted in pots containing the same blend of loam soil and sand and treated with postemergence applications of test chemicals formulated in the same manner. Plants ranged in height from 2 to 10 cm and were in the one- to two-leaf stage for the postemergence treatment. […] A dash (-) response means no test result.

[7] = tested on: ragweed (common ragweed, Ambrosia artemisiifolia); experiment: Test A postemergence, ragweed; details: Postemergence, 0 to 100 scale (0 no effect, 100 complete control); for Plant response rating, Ragweed: 125 g ai/ha, visual injury approx. 10 days; for Ragweed plant response rating: 500 g ai/ha, visual injury vs untreated controls after approx. 10 days
Method in brief: as §1

[8] = tested on: Ryegrass, Italian (Italian ryegrass, Lolium multiflorum); experiment: Test A preemergence, Ryegrass, Italian; details: Preemergence; for Ryegrass, Italian plant response rating: 125 g ai/ha, visual injury on 0 to 100 scale (0 no effect, 100 complete control), approximately 10 days; for Plant response rating, Ryegrass, Italian: 500 g ai/ha, 0 to 100 scale (0 no effect, 100 complete control)
Method in brief: as §1

[9] = tested on: galium (catchweed bedstraw, Galium aparine); experiment: Test A postemergence, galium; details: Postemergence, 0 to 100 scale (0 no effect, 100 complete control); for Plant response rating, Galium: 125 g ai/ha, visual injury approx. 10 days; for Galium plant response rating: 500 g ai/ha, visual injury vs untreated controls after approx. 10 days
Method in brief: (§2)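 Postemergence ratings come from foliar sprays onto one- to two-leaf plants of 2 to 10 cm grown in loam/sand; preemergence ratings come from a directed spray onto the soil of newly seeded pots. Formulation was a surfactant-containing non-phytotoxic solvent blend.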

[10] = tested on: pigweed (Amaranthus retroflexus); experiment: Test A postemergence, pigweed; details: Postemergence, 0 to 100 scale (0 no effect, 100 complete control); for Plant response rating, Pigweed: 125 g ai/ha, visual injury approx. 10 days; for Pigweed plant response rating: 500 g ai/ha, visual injury vs untreated controls after approx. 10 days
Method in brief: as §1

[11] = tested on: ragweed (common ragweed, Ambrosia artemisiifolia); experiment: Test A preemergence, ragweed; details: Preemergence; for Ragweed plant response rating: 125 g ai/ha, visual injury on 0 to 100 scale (0 no effect, 100 complete control), approximately 10 days; for Plant response rating, Ragweed: 500 g ai/ha, 0 to 100 scale (0 no effect, 100 complete control)
Method in brief: as §1

[12] = tested on: wheat (Triticum aestivum); experiment: Test A postemergence, wheat; details: Postemergence, 0 to 100 scale (0 no effect, 100 complete control); for Plant response rating, Wheat: 125 g ai/ha, visual injury approx. 10 days; for Wheat plant response rating: 500 g ai/ha, visual injury vs untreated controls after approx. 10 days
Method in brief: as §2

[13] = tested on: barnyardgrass (Echinochloa crus-galli); experiment: Test A preemergence, barnyardgrass; details: Preemergence; for Barnyardgrass plant response rating: 125 g ai/ha, visual injury on 0 to 100 scale (0 no effect, 100 complete control), approximately 10 days; for Plant response rating, Barnyardgrass: 500 g ai/ha, 0 to 100 scale (0 no effect, 100 complete control)
Method in brief: as §1

[14] = tested on: Foxtail, Giant (giant foxtail, Setaria faberi); experiment: Test A preemergence, Foxtail, Giant; details: Preemergence; for Foxtail, Giant plant response rating: 125 g ai/ha, visual injury on 0 to 100 scale (0 no effect, 100 complete control), approximately 10 days; for Plant response rating, Foxtail, Giant: 500 g ai/ha, 0 to 100 scale (0 no effect, 100 complete control)
Method in brief: as §1

Row | SMILES | Plant response rating, Foxtail, Giant [1] | Foxtail, Giant plant response rating [1] | Plant response rating, Blackgrass [2] | Blackgrass plant response rating [2] | Plant response rating, Corn (corn (Zea mays)) | Corn plant response rating (corn (Zea mays)) | Plant response rating, Ryegrass, Italian [3] | Ryegrass, Italian plant response rating [3] | Plant response rating, Kochia (kochia (Bassia scoparia) [4]) | Kochia plant response rating (kochia (Bassia scoparia) [4]) | Kochia plant response rating (kochia (Bassia scoparia) [5]) | Plant response rating, Kochia (kochia (Bassia scoparia) [5]) | Pigweed plant response rating [6] | Plant response rating, Pigweed [6] | Plant response rating, Ragweed [7] | Ragweed plant response rating [7] | Ryegrass, Italian plant response rating [8] | Plant response rating, Ryegrass, Italian [8] | Plant response rating, Galium [9] | Galium plant response rating [9] | also measured
1 | Cc1cc(C)c(-c2cc(Cl)nn(C)c2=O)cc1NS(=O)(=O)C(F)(F)F [Compound 72] | 90 | 90 | 50 | 80 | 0 | 50 | 60 | 80 | 40 | 90 | 100 | 100 | 80 | 100 | 20 | 70 | 90 | 100 | 70 | 90 | Plant response rating, Pigweed [10]: 60; Pigweed plant response rating [10]: 80; Ragweed plant response rating [11]: 80; Plant response rating, Ragweed [11]: 90; Plant response rating, Wheat [12]: 60; Wheat plant response rating [12]: 70; Barnyardgrass plant response rating [13]: 90; Plant response rating, Barnyardgrass [13]: 100; Foxtail, Giant plant response rating [14]: 100; Plant response rating, Foxtail, Giant [14]: 100
2 | Cc1cc(C)c(N(S(C)(=O)=O)S(=O)(=O)C(F)(F)F)cc1-c1ccnn(C)c1=O [Compound 73] | 80 | 90 | 40 | 80 | 10 | 70 | 60 | 90 | 10 | 70 | 80 | 90 | 90 | 100 | 20 | 80 | 90 | 100 | 90 | 90 | Plant response rating, Pigweed [10]: 60; Pigweed plant response rating [10]: 80; Ragweed plant response rating [11]: 80; Plant response rating, Ragweed [11]: 80; Plant response rating, Wheat [12]: 60; Wheat plant response rating [12]: 70; Barnyardgrass plant response rating [13]: 90; Plant response rating, Barnyardgrass [13]: 90; Foxtail, Giant plant response rating [14]: 100; Plant response rating, Foxtail, Giant [14]: 100
